For orientation: Ki means the equilibrium dissociation constant of an inhibitor or competing ligand from its target. A higher Ki goes with weaker binding.

Experimental findings from ChEMBL document CHEMBL1144732 (Bioorg Med Chem Lett, 2008) are described below.

Some targets named below: Carbonic anhydrase 3 (Homo sapiens, UniProt P07451); Carbonic anhydrase 14 (Homo sapiens, UniProt Q9ULX7); Carbonic anhydrase 13 (Mus musculus, UniProt Q9D6N1); Carbonic anhydrase 4 (Homo sapiens, UniProt P22748).
Assay [1] has as its target Carbonic anhydrase 5B, mitochondrial (Homo sapiens, UniProt Q9Y2D0).
Assay [2] has as its target Carbonic anhydrase 5A, mitochondrial (Homo sapiens, UniProt P35218).

Chain of Carbonic anhydrase 13 (Q9D6N1 whole entry): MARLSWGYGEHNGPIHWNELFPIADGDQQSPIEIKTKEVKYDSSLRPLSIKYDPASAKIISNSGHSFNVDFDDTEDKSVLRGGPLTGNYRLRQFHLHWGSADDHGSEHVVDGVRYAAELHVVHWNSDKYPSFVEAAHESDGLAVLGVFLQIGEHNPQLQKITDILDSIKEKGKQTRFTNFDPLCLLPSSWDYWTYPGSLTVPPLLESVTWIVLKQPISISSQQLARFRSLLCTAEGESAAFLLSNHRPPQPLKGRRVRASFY
Chain of Carbonic anhydrase 5A, mitochondrial (P35218 whole entry): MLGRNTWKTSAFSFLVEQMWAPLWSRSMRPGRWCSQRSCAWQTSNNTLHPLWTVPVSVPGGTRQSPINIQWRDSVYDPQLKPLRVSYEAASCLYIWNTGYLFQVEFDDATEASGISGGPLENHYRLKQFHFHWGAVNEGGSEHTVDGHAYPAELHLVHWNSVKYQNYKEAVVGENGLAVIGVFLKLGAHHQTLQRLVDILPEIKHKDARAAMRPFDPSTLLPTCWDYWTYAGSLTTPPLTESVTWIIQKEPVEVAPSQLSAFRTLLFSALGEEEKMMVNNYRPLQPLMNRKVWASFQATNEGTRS
Chain of Carbonic anhydrase 4 (P22748 whole entry): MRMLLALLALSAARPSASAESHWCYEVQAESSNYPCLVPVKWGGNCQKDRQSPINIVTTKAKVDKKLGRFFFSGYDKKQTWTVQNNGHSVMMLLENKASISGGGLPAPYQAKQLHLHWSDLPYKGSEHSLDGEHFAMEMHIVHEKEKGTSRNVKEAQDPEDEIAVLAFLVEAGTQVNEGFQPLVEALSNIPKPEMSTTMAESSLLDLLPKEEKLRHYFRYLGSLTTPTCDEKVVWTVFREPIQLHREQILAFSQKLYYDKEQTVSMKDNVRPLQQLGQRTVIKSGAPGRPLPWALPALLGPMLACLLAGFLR
Chain of Carbonic anhydrase 5B, mitochondrial (Q9Y2D0 whole entry): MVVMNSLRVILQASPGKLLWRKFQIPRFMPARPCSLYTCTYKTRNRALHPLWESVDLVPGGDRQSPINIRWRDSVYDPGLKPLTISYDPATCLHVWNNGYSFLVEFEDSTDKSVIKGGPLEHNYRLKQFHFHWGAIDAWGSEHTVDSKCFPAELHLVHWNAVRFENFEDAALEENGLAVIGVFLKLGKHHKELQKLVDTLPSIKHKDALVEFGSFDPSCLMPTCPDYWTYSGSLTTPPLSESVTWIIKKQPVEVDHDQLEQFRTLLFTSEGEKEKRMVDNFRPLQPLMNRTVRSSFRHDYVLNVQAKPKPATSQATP
Chain of Carbonic anhydrase 3 (P07451 whole entry): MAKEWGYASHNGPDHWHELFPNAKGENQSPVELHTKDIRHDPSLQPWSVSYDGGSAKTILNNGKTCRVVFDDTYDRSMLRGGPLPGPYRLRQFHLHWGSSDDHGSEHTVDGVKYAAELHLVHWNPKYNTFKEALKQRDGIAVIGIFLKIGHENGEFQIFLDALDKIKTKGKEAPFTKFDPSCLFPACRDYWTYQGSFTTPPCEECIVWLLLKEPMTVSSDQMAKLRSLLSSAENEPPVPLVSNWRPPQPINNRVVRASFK
Chain of Carbonic anhydrase 14 (Q9ULX7 whole entry): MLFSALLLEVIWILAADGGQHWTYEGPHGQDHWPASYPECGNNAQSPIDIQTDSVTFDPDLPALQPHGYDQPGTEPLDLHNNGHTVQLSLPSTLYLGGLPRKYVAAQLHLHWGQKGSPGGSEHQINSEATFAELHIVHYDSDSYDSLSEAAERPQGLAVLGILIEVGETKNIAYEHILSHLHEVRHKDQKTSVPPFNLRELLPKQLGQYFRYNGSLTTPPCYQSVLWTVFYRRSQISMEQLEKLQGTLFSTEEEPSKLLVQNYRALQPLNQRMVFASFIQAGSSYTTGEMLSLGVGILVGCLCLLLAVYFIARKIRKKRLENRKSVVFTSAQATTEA

Regarding `NS(=O)(=O)c1cc(Cl)c(Cl)c(S(N)(=O)=O)c1` [DICHLORPHENAMIDE], the Ki in assay [1] amounted to 91 nM; on Carbonic anhydrase 3, 630000 nM; at Carbonic anhydrase 14 it was 1540 nM; in assay [2], 81 nM; at Carbonic anhydrase 13, 1450 nM.

For `CCNC1CN(CCCOC)S(=O)(=O)c2sc(S(N)(=O)=O)cc21` (single isomer, unassigned) [BRINZOLAMIDE], the Ki came out at 3950 nM on Carbonic anhydrase 4 and 10 nM on Carbonic anhydrase 13.
